From patent US5594004A, “Compound with platelet aggregation inhibitor activity” (Meiji Seika Kabushiki Kaisha, priority 1993, dated 1997) come the findings set out here.

Where a name gives a salt, the structure may show the parent alone.

In experiment [1] the test system is human PRP (platelet rich plasma). Briefly: Pharmacological test 1: inhibition of ADP-induced platelet aggregation in human PRP. Type of experiment: cell-based. Conditions: platelet aggregation, ADP 5 μM inducer. The protocol: Pharmacological test 1 Inhibition of platelet aggregation
The effect of the compound according to the present invention on inhibiting the platelet aggregation was examined with human PRP (platelet rich plasma).
Nine volumes of a blood sample was taken out of the vein of a normal human with a syringe in which one volume of a 3.8% sodium citrate solution was charged. The blood sample was centrifuged at 170×g at room temperature for 10 minutes. The supernatant thus obtained was isolated as PRP. The residual blood sample that PRP had been taken out was centrifuged at 2,700×g for 15 minutes. The supernatant was then taken as platelet poor plasma (PPP).
Platelet aggregation test was conducted with an aggligometer (PAM-8C; manufactured by MEBANICKS Co., Ltd.). Compounds to be tested were dissolved in a 50% DMSO saline, a 50% methanol saline or physiological saline. The compound and PRP were preincubated for 2 minutes. The ADP (CHRONO-PAR REAGENTS 384 ADP, CHRONO-LOG Corp.) was used as an inducer in the form of a dilution with saline so that the final concentration is 5 μM.
Anti-platelet aggregation activity was obtained as an inhibition rate to platelet aggregation effect of ADP in the absence of a compound to be tested as follows: [formula] Physiological test 2 Inhibition of fibrinogen bonding to platelet GPIIb/IIIa

For experiment [2], the target named is T1, human platelet GPIIb/IIIa (Homo sapiens, UniProt P05106+P08514).
T1 construct: platelets collected from healthy adults; from tissue; host or cells: platelets from healthy adults (solubilized with octylglucoside, purified on GRGDSPK-Sepharose)
T1 sequence (P08514 32-887 limits assumed): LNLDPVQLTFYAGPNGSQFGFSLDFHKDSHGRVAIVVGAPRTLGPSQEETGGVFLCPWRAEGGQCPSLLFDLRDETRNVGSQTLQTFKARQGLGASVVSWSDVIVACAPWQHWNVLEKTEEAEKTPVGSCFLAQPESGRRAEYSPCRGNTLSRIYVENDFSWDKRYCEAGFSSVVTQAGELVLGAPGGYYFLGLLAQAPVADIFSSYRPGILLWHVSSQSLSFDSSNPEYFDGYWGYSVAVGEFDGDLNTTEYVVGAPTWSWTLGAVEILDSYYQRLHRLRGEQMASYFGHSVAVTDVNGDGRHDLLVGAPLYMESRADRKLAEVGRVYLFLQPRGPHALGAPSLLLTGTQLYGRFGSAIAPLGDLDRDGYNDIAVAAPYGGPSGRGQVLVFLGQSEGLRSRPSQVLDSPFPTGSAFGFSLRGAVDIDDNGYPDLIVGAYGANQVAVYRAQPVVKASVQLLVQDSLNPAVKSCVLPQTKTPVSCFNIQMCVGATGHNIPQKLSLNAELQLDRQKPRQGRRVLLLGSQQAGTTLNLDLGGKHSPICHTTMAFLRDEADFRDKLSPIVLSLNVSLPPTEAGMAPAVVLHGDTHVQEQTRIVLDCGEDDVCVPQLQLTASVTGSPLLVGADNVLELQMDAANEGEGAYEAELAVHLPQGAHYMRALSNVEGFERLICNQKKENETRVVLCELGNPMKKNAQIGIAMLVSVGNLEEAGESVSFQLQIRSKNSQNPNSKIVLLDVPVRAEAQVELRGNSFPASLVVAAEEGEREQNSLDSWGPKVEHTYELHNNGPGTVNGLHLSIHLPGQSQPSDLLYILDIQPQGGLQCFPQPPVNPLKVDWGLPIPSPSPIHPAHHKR
T1 sequence (P08514 891-1039 limits assumed): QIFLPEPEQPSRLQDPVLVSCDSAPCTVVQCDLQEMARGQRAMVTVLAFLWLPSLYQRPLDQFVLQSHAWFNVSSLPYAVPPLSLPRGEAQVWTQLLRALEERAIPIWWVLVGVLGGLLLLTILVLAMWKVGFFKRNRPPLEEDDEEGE
T1 sequence (P05106 27-788): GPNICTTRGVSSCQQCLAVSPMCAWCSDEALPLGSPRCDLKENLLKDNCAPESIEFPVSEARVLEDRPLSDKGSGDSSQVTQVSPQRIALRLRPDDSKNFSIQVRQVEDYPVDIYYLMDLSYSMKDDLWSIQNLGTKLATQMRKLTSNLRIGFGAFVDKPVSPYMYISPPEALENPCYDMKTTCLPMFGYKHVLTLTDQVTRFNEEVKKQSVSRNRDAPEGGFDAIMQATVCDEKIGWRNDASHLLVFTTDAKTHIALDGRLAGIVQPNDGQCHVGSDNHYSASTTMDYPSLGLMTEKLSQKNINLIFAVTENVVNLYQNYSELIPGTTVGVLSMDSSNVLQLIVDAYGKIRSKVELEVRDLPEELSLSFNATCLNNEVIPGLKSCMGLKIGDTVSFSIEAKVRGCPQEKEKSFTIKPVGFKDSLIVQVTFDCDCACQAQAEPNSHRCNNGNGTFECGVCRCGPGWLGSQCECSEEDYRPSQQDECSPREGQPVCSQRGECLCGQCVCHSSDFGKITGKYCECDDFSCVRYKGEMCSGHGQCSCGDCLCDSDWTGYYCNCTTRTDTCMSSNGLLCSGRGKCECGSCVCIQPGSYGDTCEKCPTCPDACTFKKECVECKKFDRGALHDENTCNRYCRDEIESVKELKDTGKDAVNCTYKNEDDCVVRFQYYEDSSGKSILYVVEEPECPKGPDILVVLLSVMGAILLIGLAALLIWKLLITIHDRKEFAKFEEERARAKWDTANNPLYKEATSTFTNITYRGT
Briefly: Pharmacological test 2: inhibition of fibrinogen bonding to platelet GPIIb/IIIa (solid phase assay, biotinylated fibrinogen). Type of experiment: binding. Conditions: fibrinogen bonding to GPIIb/IIIa. Here is the method: Inhibiting effect of the compound according to the present invention on the binding of platelet GPIIb/IIIa and fibrinogen was examined with a solid phase human platelet GPIIb/IIIa bonding assay using biotinylated fibrinogen as a ligand. Human platelet GPIIb/IIIa was purified according to the method described by Pytela, R. et al. (Science, 231, 1559-1561 (1986)). […] The same amount of TBS containing 50 mM octylglucoside and 2 mM PMSF was added to the pellet obtained in order to solubilize the membrane protein at 4° C. for 20 minutes. […] The solubilized protein solution was adsorbed on a GRGDSPK-Sepharose column which had been equilibrated with TBS (Buffer A) containing 50 mM Octylglucoside, 1 mM CaCl2 and MgCl2. After the column was washed with Buffer A, the adsorbed GPIIb/IIIa was eluted with Buffer A containing 2 mM GRGDSP peptide. GRGDSPK-Sepharose was prepared by coupling GRGDSPK peptide and CNBr-activated Sepharose 4B (Pharmacia) according to the instruction of the manufacturer. Then, solid phase human platelet GPIIb/IIIa bonding assay was carried out according to the method of Mori et al. […] Purified human platelet GPIIb/IIIa was adjusted in an amount of 2 μg/ml and adsorbed in an amount of 50 μl on a 96 well-microtiter plate at 4° C. overnight. After washing with TBS containing 1 mM CaCl2 and 1 mM MgCl2, 100 μl of 1% bovine serum albumin was added, blocking was conducted at 4° C. overnight. […] After washing with TBS-Tween 20, 50 μl of peroxidase labelled avidin which had been diluted with TBS to 4,000 times was added. The reaction was continued for 20 minutes. […] A 50 μl portion of a 0.1M citrate buffer containing 0.05% NaN3 was added to stop the reaction, and absorbance at 415 nm was measured. The rate of Bonding inhibition was calculated from the following formula: [formula]

Usually IC50 stands for the concentration needed to halve the response being measured. Low values mean inhibition by little substance, high ones a need for much substance. Turning to `O=C(O)COc1ccc(C(=O)CNC(=O)c2cc3c(s2)CCCNC3)cc1OCC(=O)O` [Example 30, [[4-[[[(5,6,7,8-tetrahydro-4H-thieno[3.2-c]azepin-2-yl)carbonyl]amino]acetyl]-o-phenylene]dioxy]diacetic acid trifluoroacetate], the IC50 in experiment [1] (Homo sapiens, Platelet) amounted to 1900 nM. On the same count and under the same terms, to `O=C(O)COc1ccc(-c2nc(C(=O)c3cc4c(s3)CCNC4)cs2)cc1` [Example 47, 4-[[4-(4,5,6,7-tetrahydrothieno[3,2-c]pyridin-2-yl)carbonyl]thiazol-2-yl]phenoxyacetic acid trifluoroacetate] belongs 6400 nM. Same read-out and setting: to `O=C(O)COc1ccc(C(=O)CNC(=O)c2cc3c(s2)CCNCC3)cc1OCC(=O)O` [Example 31, [[4-[[[(5,6,7,8-tetrahydro-4H-thieno[2,3-d]azepin-2-yl)carbonyl]amino]acetyl]-o-phenylene]dioxy]diacetic acid trifluoroacetate] belongs 150 nM.

In turn, `CC(=O)N(CCc1ccc(OCC(=O)O)c(OCC(=O)O)c1)Cc1cc2c(s1)CCNC2` [Example 41, [[4-[2-[N-[(4,5,6,7-tetrahydrothieno[3,2-c]pyridin-2-yl)methyl]-N-acetylamino]ethyl]-o-phenylene]dioxy]diacetic acid trifluoroacetate] registered an IC50 in experiment [1] (Homo sapiens, Platelet) of 3300 nM. Same read-out and setting: to `O=C(O)COc1ccc(C(=O)CNC(=O)c2cc3c(s2)CCNC3)nc1` [Example 44, 2-[[4,5,6,7-tetrahydrothieno[3,2-c]pyridin-2-yl)carbonylamino]acetyl]pyridin-5-yloxyacetic acid trifluoroacetate] belongs 720 nM; to `O=C(O)COc1ccc(C(=O)CNC(=O)c2cc3c(s2)CCNC3)c(OCC(=O)O)c1` [Example 25, [[4-[[[(4,5,6,7-tetrahydrothieno[3.2-c]pyridin-2-yl)carbonyl]amino]acetyl]-m-phenylene]dioxy]diacetic acid trifluoroacetate], 1500 nM; to `O=C(O)COc1ccc(CCNCc2cc3c(s2)CCNC3)cc1OCC(=O)O` [Example 40, [[4-[2-[N-[(4,5,6,7-tetrahydrothieno[3,2-c]pyridin-2-yl)methyl]amino]ethyl]-o-phenylene]dioxy]diacetic acid trifluoroacetate], 4000 nM. Still for that read-out and setting: to `CCOC(=O)COc1ccc(C(=O)CNC(=O)c2cc3c(s2)CCNC3)cc1OCC(=O)OCC` [Example 34, Diethyl [[4-[[[(4,5,6,7-tetrahydrothieno[3,2-c]pyridin2-yl)carbonyl]amino]acetyl]-o-phenylene]dioxy]diacetate trifluoroacetate] belongs 930 nM; to `CN(CC(=O)c1ccc(OCC(=O)O)c(OCC(=O)O)c1)C(=O)[C@H]1CC[C@H](C(=N)N)CC1` [Example 58, [[4-[[[trans-4-amidinocyclohexyl]carbonyl-N-methylamino]acetyl]-o-phenylene]dioxy]diacetic acid trifluoroacetate], 140 nM; to `O=C(O)COc1ccc(C(=O)NCC(=O)c2cc3c(s2)CCNC3)cc1OCC(=O)O` [Example 32, [[4-[N-[(4,5,6,7-tetrahydrothieno[3,2-c]pyridin-2-yl)carbonyl]methyl]carbamoyl]-o-phenylene]dioxy]diacetic acid trifluoroacetate], 480 nM. As for `CCCCOC(=O)COc1ccc(C(=O)CNC(=O)c2cc3c(s2)CCNC3)cc1OCC(=O)OCCCC` [Example 56, Di-n-butyl [[4-[[[(4,5,6,7-tetrahydrothieno [3,2-c]pyridin-2-yl)carbonyl]amino]acetyl]-o-phenylene]dioxy]diacetate trifluoroacetate], in experiment [1] (Homo sapiens, Platelet), half-maximal inhibition (IC50) was put at 1100 nM. Take `O=C(O)CCc1ccc(C(=O)CNC(=O)c2cc3c(s2)CCNC3)cc1` [Example 20, 3-[4-[[(4,5,6,7-tetrahydrothieno[3,2-c]pyridin-2-yl)carbonyl]aminoacetyl]phenyl]propionic acid trifluoroacetate]: in experiment [2], the IC50 was 34000 nM. In turn, `O=C(COc1ccc(C(=O)CNC(=O)c2cc3c(s2)CCNC3)cc1OCC(=O)OC1CCCCC1)OC1CCCCC1` [Example 57, Dicyclohexyl [[4-[[[(4,5,6,7-tetrahydrothieno[3,2-c]pyridin-2-yl)carbonyl]amino]acetyl]-o-phenylene]dioxy]diacetate] showed an IC50 in experiment [1] (Homo sapiens, Platelet) of 3200 nM. Compound `O=C(O)COc1ccc(C(=O)CNC(=O)c2cc3c(s2)CCNC3)cc1OCC(=O)O` [Example 29, [[4-[[[(4,5,6,7-tetrahydrothieno[3.2-c]pyridin-2-yl)carbonyl]amino]acetyl]-o-phenylene]dioxy]diacetic acid trifluoroacetate] had an IC50 in experiment [1] of 230 nM.

With `CN(CC(=O)c1ccc(OCC(=O)O)c(OCC(=O)O)c1)C(=O)CC1CCNCC1` [Example 37, [[4-[[N-[2-(piperidin-4-yl)acetyl]-N-methylamino]acetyl]-o-phenylene]dioxy]diacetic acid trifluoroacetate], the midpoint of inhibition in experiment [1] (Homo sapiens, Platelet), the IC50, lay at 4900 nM. For the compound `CCOC(=O)COc1ccc(CCNC(=O)c2cc3c(s2)CCNC3)cc1OCC(=O)OCC` [Example 33, Diethyl [[4-[[2-[(4,5,6,7-tetrahydrothieno[3,2-c]pyridin-2-yl)carbonyl]amino]ethyl]-o-phenylene]dioxy]diacetate trifluoroacetate], inhibition in experiment [1] (Homo sapiens, Platelet) was half-maximal at 1700 nM (IC50). Same read-out and setting: to `O=C(O)COc1ccc(C(=O)CNC(=O)c2sc3c(c2Cc2ccccc2)CNCC3)cc1OCC(=O)O` [Example 28, [[4-[[[(3-benzyl-4,5,6,7-tetrahydrothieno[3.2-c]pyridin-2-yl)carbonyl]amino]acetyl]-o-phenylene]dioxy]diacetic acid trifluoroacetate] belongs > 10000 nM. The same measure, in the same setting: to `Cc1oc(=O)oc1COC(=O)COc1ccc(C(=O)CNC(=O)c2cc3c(s2)CCNC3)cc1OCC(=O)OCc1oc(=O)oc1C` [Example 42, Di-(5-methyl-2-oxodioxol-4-yl)methyl [[4-[[(4,5,6,7-tetrahydrothieno[3,2-c]pyridin-2-yl)-carbonyl]amino]acetyl]-o-phenylene]dioxy]diacetic acid trifluoroacetate] belongs 340 nM; to `O=C(O)COc1ccc(CCNC(=O)c2cc3c(s2)CCNC3)cc1` [Example 39, 4-[2-[[(4,5,6,7-tetrahydrothieno[3,2-c]pyridin-2-yl)carbonyl]amino]ethyl]phenoxyacetic acid trifluoroacetate], 260 nM; to `O=C(O)COc1ccc(C(O)CNC(=O)c2cc3c(s2)CCNC3)cc1OCC(=O)O` (stereo not drawn) [Example 45, [[4-[[2-[(4,5,6,7-tetrahydrothieno[3,2-c]pyridin-2-yl)carbonyl]amino]-1-hydroxyethyl]-o-phenylene]dioxy]diacetic acid trifluoroacetate], 460 nM. On the same count and under the same terms, to `O=C(O)CCc1ccc(C(=O)CNC(=O)CCC2CCNCC2)cc1` [Example 38, 3-[4-[N-[3-(piperidin-4-yl)propionyl]amino]acetyl]phenylpropionic acid trifluoroacetate] belongs 8000 nM. In experiment [1] (Homo sapiens, Platelet), `COc1cc(C(=O)CNC(=O)c2cc3c(s2)CCNC3)ccc1OCC(=O)O` [Example 26, 4-[[4,5,6,7-tetrahydrothieno[3.2-c]pyridin-2-yl)carbonyl]aminoacetyl]-2-methoxyphenoxyacetic acid trifluoroacetate] gave an IC50 of 1000 nM. Compound `O=C(O)COc1ccc(C(=O)CNC(=O)CCCC2CCNCC2)cc1OCC(=O)O` [Example 36, [[4-[[N-[4-(piperidin-4-yl)butyryl]amino]acetyl]-o-phenylene]dioxy]diaceticacid trifluoroacetate] showed an IC50 in experiment [1] (Homo sapiens, Platelet) of 9000 nM. Compared with the last compound, the IC50 is about 9-fold higher. On the same count and under the same terms, to `O=C(O)COc1ccc(-c2cnc(CCC3CCNCC3)o2)cc1OCC(=O)O` [Example 43, [[4-[2-[2-(piperidin-4-yl)ethyl]oxazol-5-yl]-o-phenylene]dioxy]diacetic acid 1/2 sulfate] belongs 2800 nM.
